PMC5947694, “Structure of the mouse acidic amino acid decarboxylase GADL1” (Acta Crystallographica. Section F, Structural Biology …, 2018)

T1: MmGADL1 (mouse glutamic acid decarboxylase-like protein 1) (Mus musculus, UniProt Q80WP8)
T1 construct: gene Gadl1; residues 1-502, N-terminal His6 tag and TEV site kept; expressed in E. coli; homodimer; residues 11-502 built, loop about 340-350 disordered
T1 sequence (Q80WP8 49-526 isoform Q80WP8-2): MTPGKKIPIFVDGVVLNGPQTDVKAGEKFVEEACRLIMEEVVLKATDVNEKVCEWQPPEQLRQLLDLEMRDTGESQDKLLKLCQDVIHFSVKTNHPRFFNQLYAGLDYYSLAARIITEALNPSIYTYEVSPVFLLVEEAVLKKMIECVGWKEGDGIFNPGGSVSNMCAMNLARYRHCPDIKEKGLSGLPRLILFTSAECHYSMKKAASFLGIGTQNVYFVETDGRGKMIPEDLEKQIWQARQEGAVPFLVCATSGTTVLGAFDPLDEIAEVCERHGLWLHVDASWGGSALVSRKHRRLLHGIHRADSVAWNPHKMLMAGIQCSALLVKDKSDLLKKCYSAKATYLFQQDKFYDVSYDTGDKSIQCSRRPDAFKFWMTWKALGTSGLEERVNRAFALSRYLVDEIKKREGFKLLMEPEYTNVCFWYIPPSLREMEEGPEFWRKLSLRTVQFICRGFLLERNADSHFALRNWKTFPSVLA

B1: mouse glutamic acid decarboxylase-like protein 1 (MmGADL1), His6-tagged, residues 1-502 (enzyme)
chain: MGPHHHHHHLESTSLYKKAGSENLYFQGMTPGKKIPIFVDGVVLNGPQTDVKAGEKFVEEACRLIMEEVVLKATDVNEKVCEWQPPEQLRQLLDLEMRDTGESQDKLLKLCQDVIHFSVKTNHPRFFNQLYAGLDYYSLAARIITEALNPSIYTYEVSPVFLLVEEAVLKKMIECVGWKEGDGIFNPGGSVSNMCAMNLARYRHCPDIKEKGLSGLPRLILFTSAECHYSMKKAASFLGIGTQNVYFVETDGRGKMIPEDLEKQIWQARQEGAVPFLVCATSGTTVLGAFDPLDEIAEVCERHGLWLHVDASWGGSALVSRKHRRLLHGIHRADSVAWNPHKMLMAGIQCSALLVKDKSDLLKKCYSAKATYLFQQDKFYDVSYDTGDKSIQCSRRPDAFKFWMTWKALGTSGLEERVNRAFALSRYLVDEIKKREGFKLLMEPEYTNVCFWYIPPSLREMEEGPEFWRKLSLVAPAIKEKMMKKGSLMLGYQPHRGKVNFFRQVVISPQVSREDMDFLLDEIDSLGRDM
modifications: PLP covalently bound to the N-epsilon atom of Lys314 through a Schiff base linkage (seen in the crystal)

Key:
[1] = molecular target: T1, MmGADL1 (mouse glutamic acid decarboxylase-like protein 1); assay: X-ray crystallography, […] Å (crystal form […]); type: binding; details: covalent; Schiff base (internal aldimine) with Lys314; active site at dimer interface, both sites occupied
[2] = molecular target: the molecule itself; assay: SAXS; 1.6-6.5 mg/ml in 20 mM HEPES pH 7.4, 200 mM NaCl, 293 K; molecular mass from forward scattering I(0) against a monomeric BSA standard

Row | Molecule | X-ray crystallography, 3.0 Å (crystal form 1) [1] | stoichiometry N [2]
1 | Cc1ncc(COP(=O)(O)O)c(C=O)c1O [PLP] | Both active sites in the dimer are occupied by the PLP cofactor, which is covalently bound | 
2 | B1 |  | 2 ratio to theoretical monomer
